Test results reported in patent publication US6649364B1, “Anti-apoptotic compositions and methods using same” (The Regents of the University of California, priority 1995, dated 2003).
Where a SMILES comes first, the peptide text is derived from it. [ ]: non-standard residue; d: D form. The star is where a group is joined. Sta = CC(C)C[C@H](N)[C@@H](O)CC(=O)O; Isovaleryl = CC(C)CC(=O)*

molecular target: T1, human recombinant ICE (Homo sapiens, UniProt P29466); experiment: ICE cleavage of actin in PC12 cell extracts, with protease inhibitors (SDS-PAGE, immunoblot); format: biochemical; settings: not given
T1 construct: highly purified human recombinant ICE (p20/p10) (Merck, Wayne, N.J.); purchased Merck, Wayne, N.J
T1 sequence (P29466 120-297 limits assumed): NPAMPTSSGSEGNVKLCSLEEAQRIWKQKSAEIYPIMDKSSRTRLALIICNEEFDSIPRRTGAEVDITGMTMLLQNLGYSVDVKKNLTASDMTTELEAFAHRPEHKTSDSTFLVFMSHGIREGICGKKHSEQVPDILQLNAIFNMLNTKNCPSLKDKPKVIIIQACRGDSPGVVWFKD
T1 sequence (P29466 317-404 limits assumed): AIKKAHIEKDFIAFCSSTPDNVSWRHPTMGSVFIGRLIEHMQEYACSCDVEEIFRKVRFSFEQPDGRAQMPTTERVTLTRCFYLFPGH
Procedure: Cells were washed with ice-cold PBS twice and were extracted with Triton X-100® detergent (1%) in Hepes buffer (10 mM, pH=7.5). Supernatants were treated with ICE as follows: 50 μg of cellular protein extracted from semi-confluent cells grown in serum-containing media was incubated with 50 ng of highly purified human recombinant ICE (p20/p10) (Merck, Wayne, N.J.) at 37° C. for 2 hours in the presence of 10 mM dithiothreitol (DTT).
In order to determine whether any of the cellular proteins of relatively high abundance serve as ICE substrates, extracts prepared from PC12 pheochromocytoma cells (29), CSM14.1 cells (conditionally immortalized mesencephalic neuronal cells) (30, 31), and Rat-1 cells (25) were treated with highly purified human recombinant ICE under various conditions. The cleavage products were then analyzed by SDS-polyacrylamide gel electrophoresis.
Control was incubated in the absence of ICE.

Row | Molecule | inhibition of the generation of actin fragments by ICE
1 | O=C(O)CI [iodoacetate] | completely inhibited

same assay, conditions: cell extracts treated with ICE, 37° C., 2 hours

Row | Molecule | inhibition of the generation of actin fragments by ICE
2 | CC(=O)N[C@@H](CC(C)C)C(=O)N[C@@H](CC(C)C)C(=O)N[C@H](C=O)CCCNC(=N)N [leupeptin] | not
3 | O=S(=O)(F)Cc1ccccc1 [phenylmethylsulfonyl fluoride] | not

More lines, now with the values ahead:

Row | inhibition of the generation of actin fragments by ICE | Molecule
4 | not | CC(C)C[C@H](NC(=O)[C@H]1O[C@@H]1C(=O)O)C(=O)NCCCCN=C(N)N [E-64]
5 | not | CC(C)CC(=O)N[C@H](C(=O)N[C@H](C(=O)N[C@@H](CC(C)C)[C@@H](O)CC(=O)N[C@@H](C)C(=O)N[C@@H](CC(C)C)[C@@H](O)CC(=O)O)C(C)C)C(C)C [pepstain] (Isovaleryl-VV[Sta]A[Sta]-OH)
6 | completely inhibited | Ac-Tyr-Val-Ala-Asp-CHO
7 | not | human α2-macroglobulin: granzyme B inhibitor, shown not to inhibit ICE
